Test results as given in patent US20250163037A1, “SUBSTITUTED ISOXAZOLINE DERIVATIVES” (BASF SE, priority 2022, published 2025).
Where two headings read alike, the source gives them in different places.

How the values were obtained:
Format in all cases: in vivo
[1] = system: Green Peach Aphid (Myzus persicae); assay: B.2 Green Peach Aphid (mixed life stages), systemic artificial diet under membrane; settings: 72 h, read-out: mortality in comparison with untreated controls
From the text: For evaluating control of Green Peach Aphid through systemic means the test unit consisted of 96-well-microtiter plates containing liquid artificial diet under an artificial membrane. The compounds were formulated using a solution containing 75% v/v water and 25% v/v DMSO. Different concentrations of formulated compounds were pipetted into the aphid diet, using a custom-built pipette, at two replications. After application, 5-8 adult aphids were placed on the artificial membrane inside the microtiter plate wells. The aphids were then allowed to suck on the treated aphid diet and incubated at about 23±1° C. and about 50±5% relative humidity for 3 days. Aphid mortality and fecundity was then visually assessed.

[2] = system: Southern Armyworm (Spodoptera eridania); assay: B.7 Southern Armyworm, 2nd instar larvae, sprayed lima bean plants; settings: 96 h, 4 days after treatment, read-out: mortality in comparison with untreated controls
Description: The active compounds were formulated by a Tecan liquid handler in 100% cyclohexanone as a 10′000 ppm solution supplied in tubes. The 10′000 ppm solution was serially diluted in 100% cyclohexanone to make interim solutions. These served as stock solutions for which final dilutions were made by the Tecan in 50% acetone:50% water (v/v) into 10 or 20 ml glass vials. A nonionic surfactant (Kinetic®) was included in the solution at a volume of 0.01% (v/v). The vials were then inserted into an automated electrostatic sprayer equipped with an atomizing nozzle for application to plants/insects. Lima bean plants (variety Sieva) were grown 2 plants to a pot and selected for treatment at the 1st true leaf stage. Test solutions were sprayed onto the foliage by an automated electrostatic plant sprayer equipped with an atomizing spray nozzle. The plants were dried in the sprayer fume hood and then removed from the sprayer. Each pot was placed into perforated plastic bags with a zip closure. Ten to 11 armyworm larvae were placed into the bag and the bags zipped closed. Test plants were maintained in a growth room at about 25° C. and about 20-40% relative humidity for 4 days, avoiding direct exposure to fluorescent light (14:10 light:dark photo-period) to prevent trapping of heat inside the bags. Mortality and reduced feeding were assessed 4 days after treatment, compared to untreated control plants.

[3] = system: Boll Weevil (Anthonomus grandis); assay: B.1 Boll weevil, microtiter plate with insect diet and eggs; settings: 120 h, egg and larval mortality after 5 days, read-out: mortality in comparison with untreated controls
Description: For evaluating control of boll weevil, the test unit consisted of 96-well-microtiter plates containing an insect diet and 5-10 A. grandis eggs.
The compounds were formulated using a solution containing 75% v/v water and 25% v/v DMSO. Different concentrations of formulated compounds were sprayed onto the insect diet at 5 μl, using a custom-built micro atomizer, at two replications.
After application, microtiter plates were incubated at about 25±1° C. and about 75±5% relative humidity for 5 days. Egg and larval mortality were then visually assessed.

[4] = system: Orchid Thrips (Dichromothrips corbetti); assay: B.6 Orchid Thrips, floral-immersion technique; settings: for B.6, 10 ppm: comparative experiment, test B.6 (percent mortality), unit not given; for mortality at 300 ppm: read-out: mortality in comparison with untreated controls
Description: Dichromothrips corbetti adults used for bioassay were obtained from a colony maintained continuously under laboratory conditions. For testing purposes, the test compound was diluted in a 1:1 mixture of acetone:water (vol:vol), plus Kinetic at a rate of 0.01% v/v.
Thrips potency of each compound was evaluated by using a floral-immersion technique. Each orchid petal was dipped into treatment solution and allowed to dry in Petri dishes. Treated petals were placed into individual re-sealable plastic along with about 20 adult thrips. All test arenas were held under dark condition and a temperature of about 28° C. for duration of the assay. The percent mortality was recorded 72 hours after treatment.

[5] = system: Yellow Fever Mosquito (Aedes aegypti); assay: whole plant or invertebrate; settings: 48 h, larval mortality after 2 days, read-out: mortality in comparison with untreated controls
Description: For evaluating control of Yellow Fever Mosquito, the test unit consisted of 96-well-microtiter plates containing 200 μl of tap water per well and 5-15 freshly hatched A. aegypti larvae. The active compounds were formulated using a solution containing 75% (v/v) water and 25% (v/v) DMSO. Different concentrations of formulated compounds or mixtures were sprayed onto the insect diet at 2.5 μl, using a custom-built micro atomizer, at two replications.
After application, microtiter plates were incubated at 28±1° C., 80±5% RH for 2 days. Larval mortality was then visually assessed.

[6] = system: Tobacco Budworm (Heliothis virescens); assay: B.3 Tobacco Budworm, microtiter plate with insect diet and eggs; settings: 120 h, egg and larval mortality after 5 days, read-out: mortality in comparison with untreated controls
Description: For evaluating control of Tobacco Budworm, the test unit consisted of 96-well-microtiter plates containing an insect diet and 15-25 H. virescens eggs. The compounds were formulated using a solution containing 75% v/v water and 25% v/v DMSO. Different concentrations of formulated compounds were sprayed onto the insect diet at 10 μl, using a custom-built micro atomizer, at two replications. After application, microtiter plates were incubated at about 28±1° C. and about 80±5% relative humidity for 5 days. Egg and larval mortality was then visually assessed.

[7] = system: Diamond Back Moth (Plutella xylostella); assay: B.5 Diamond Back Moth, cabbage leaf disc dip; settings: for B.5, 10 ppm: comparative experiment, test B.5 (mortality), unit not given; for mortality at 300 ppm: Plutella xylostella, foliar, 3rd instar larvae, 72 hours after treatment, read-out: mortality in comparison with untreated controls
Description: The active compound was dissolved at the desired concentration in a mixture of 1:1 (vol:vol) distilled water:acetone. Surfactant (Kinetic) was added at a rate of 0.01% (vol/vol). The test solution was prepared at the day of use. Cabbage leaf discs (60 mm in diameter) were dipped in test solution and air-dried. Treated leaves were placed in petri dishes lined with moistened filter paper and inoculated with ten 3rd instar larvae. Mortality was recorded 72 hours after treatment. Feeding damages were also recorded using a scale of 0-100%.

[8] = system: Silverleaf Whitefly (Bemisia argentifoli); assay: B.8 Silverleaf Whitefly (adults), sprayed cotton plants; settings: 72 h, 3 days after treatment, read-out: mortality in comparison with untreated controls
Description: The active compounds were formulated by a Tecan liquid handler in 100% cyclohexanone as a 10,000-ppm solution supplied in tubes. The 10,000-ppm solution was serially diluted in 100% cyclohexanone to make interim solutions. These served as stock solutions for which final dilutions were made by the Tecan in 50% acetone:50% water (v/v) into 5 or 10 ml glass vials. A nonionic surfactant (Kinetic®) was included in the solution at a volume of 0.01% (v/v). The vials were then inserted into an automated electrostatic sprayer equipped with an atomizing nozzle for application to plants/insects. Cotton plants at the cotyledon stage (one plant per pot) were sprayed by an automated electrostatic plant sprayer equipped with an atomizing spray nozzle. The plants were dried in the sprayer fume hood and then removed from the sprayer. Each pot was placed into a plastic cup and about 10 to 12 whitefly adults (approximately 3-5 days old) were introduced. The insects were collected using an aspirator and a nontoxic Tygon® tubing connected to a barrier pipette tip. The tip, containing the collected insects, was then gently inserted into the soil containing the treated plant, allowing insects to crawl out of the tip to reach the foliage for feeding. Cups were covered with a reusable screened lid. […] Mortality was assessed 3 days after treatment, compared to untreated control 5 plants.

[9] = 2500 ppm, aphid mortality after 3 days
[10] = 300 ppm, adult thrips, 72 hours after treatment

For `N#Cc1ccc(NC2=NOC(c3cc(Cl)cc(Cl)c3)(C(F)(F)F)C2)cc1-n1cncn1` (stereo not drawn) [I-1], the mortality at 2500 ppm [1, 9] was at least 75%, the mortality at 300 ppm [2] was at least 75% and the mortality at 2500 ppm [3] was at least 75%. For the same molecule, the “B.6, 10 ppm” value [4] was 100, the mortality at 300 ppm [4, 10] was at least 75% and the mortality at 2500 ppm [5] was at least 75%. The mortality at 2500 ppm [6] was at least 75%, the “B.5, 10 ppm” value [7] was 100 and the mortality at 300 ppm [7] was at least 75%.

For `N#Cc1ccc(NC2=NOC(c3cc(Cl)c(F)c(Cl)c3)(C(F)(F)F)C2)cc1-n1cncn1` (stereo not drawn) [I-4, 4-[[5-(3,5-dichloro-4-fluoro-phenyl)-5-(trifluoromethyl)-4H-isoxazol-3-yl]amino]-2-(1,2,4-triazol-1-yl)benzonitrile], the mortality at 300 ppm [4, 10] was at least 75%.

In the case of `Fc1c(Cl)cc(C2(C(F)(F)F)CC(Nc3ccc(Cl)c(-n4cc(C(F)(F)F)cn4)c3)=NO2)cc1Cl` (stereo not drawn) [I-14, N-[4-chloro-3-[4-(trifluoromethyl)pyrazol-1-yl]phenyl]-5-(3,5-dichloro-4-fluoro-phenyl)-5-(trifluoromethyl)-4H-isoxazol-3-amine], the mortality at 300 ppm [4, 10] is reported as at least 75% and the mortality at 300 ppm [8] is reported as at least 75%.

`Fc1c(Cl)cc(C2(C(F)(F)F)CC(Nc3ccc(Cl)c(-n4cnc(C(F)(F)F)c4)c3)=NO2)cc1Cl` (stereo not drawn) [I-16, N-[4-chloro-3-[4-(trifluoromethyl)imidazol-1-yl]phenyl]-5-(3,5-dichloro4-fluoro-phenyl)-5-(trifluoromethyl)-4H-isoxazol-3-amine] gave a mortality at 300 ppm [4, 10] of at least 75%.

Work on `O=C(NCC(F)(F)F)c1cnn(-c2cc(NC3=NOC(c4cc(Cl)c(F)c(Cl)c4)(C(F)(F)F)C3)ccc2Cl)c1` (stereo not drawn) [I-18, 1-[2-chloro-5-[[5-(3,5-dichloro-4-fluoro-phenyl)-5-(trifluoromethyl)-4H-isoxazol-3-yl]amino]phenyl]-N-(2,2,2-trifluoroethyl)pyrazole-4-carboxamide] yielded a mortality at 300 ppm [4, 10] of at least 75%.

For `CCN(C1=NOC(c2cc(Cl)c(F)c(Cl)c2)(C(F)(F)F)C1)c1ccc(C#N)c(-n2cncn2)c1` (stereo not drawn) [I-20, 4-[[5-(3,5-dichloro-4-fluoro-phenyl)-5-(trifluoromethyl)-4H-isoxazol-3-yl]-ethyl-amino]-2-(1,2,4-triazol-1-yl)benzonitrile], the mortality at 300 ppm [4, 10] was at least 75%.

In the case of `COCN(C1=NOC(c2cc(Cl)c(F)c(Cl)c2)(C(F)(F)F)C1)c1ccc(Cl)c(-n2cc(C(F)(F)F)cn2)c1` (stereo not drawn) [I-23, N-[4-chloro-3-[4-(trifluoromethyl)pyrazol-1-yl]phenyl]-5-(3,5-dichloro-4-fluoro-phenyl)-N-(methoxymethyl)-5-(trifluoromethyl)-4H-isoxazol-3-amine], the mortality at 300 ppm [2] is reported as at least 75%, the mortality at 300 ppm [4, 10] is reported as at least 75% and the mortality at 300 ppm [7] is reported as at least 75%.

In the case of `CCOC(=O)N(C1=NOC(c2cc(Cl)c(F)c(Cl)c2)(C(F)(F)F)C1)c1ccc(Cl)c(-n2cnc(C(F)(F)F)c2)c1` (stereo not drawn) [I-26, ethyl N-[4-chloro-3-[4-(trifluoromethyl)imidazol-1-yl]phenyl]-N-[5-(3,5-dichloro-4-fluoro-phenyl)-5-(trifluoromethyl)-4H-isoxazol-3-yl]carbamate], the mortality at 2500 ppm [1] is reported as at least 75% and the mortality at 300 ppm ([4]; Thrips, 72 h) is reported as at least 75%.

`Fc1c(Cl)cc(C2(C(F)(F)F)CC(Oc3ccc(Cl)c(-n4cncn4)c3)=NO2)cc1Cl` (stereo not drawn) [I-27, 3-[4-chloro-3-(1,2,4-triazol-1-yl)phenoxy]-5-(3,5-dichloro-4-fluoro-phenyl)-5-(trifluoromethyl)-4H-isoxazole] showed a mortality at 2500 ppm [1, 9] of at least 75%, a mortality at 300 ppm [2] of at least 75% and a mortality at 2500 ppm [3] of at least 75%. It also gave a mortality at 300 ppm [4, 10] of at least 75%, a mortality at 2500 ppm [5] of at least 75% and a mortality at 2500 ppm [6] of at least 75%.

With `N#Cc1ccc(C2=NOC(c3cc(Cl)cc(Cl)c3)(C(F)(F)F)C2)cc1-n1cncn1` [WO2011/073444 Table 3937, No. D-539, reference compound] the “B.6, 10 ppm” value [4] was 0 and the “B.5, 10 ppm” value [7] was 0.

In the case of `N#Cc1cnn(-c2cccc(C3=NOC(c4cc(Cl)cc(Cl)c4)(C(F)(F)F)C3)c2)c1` (stereo not drawn) [WO2011/073444 Table C.1, No. I-4, reference compound], the “B.6, 10 ppm” value [4] is reported as 0 and the “B.5, 10 ppm” value [7] is reported as 0.
